According to ChEMBL document CHEMBL5154916, “Multiparameter Optimization of Naphthyridine Derivatives as Selective α5-GABAA Receptor Negative Allosteric Modulators” (J Med Chem, 2022):
Values after ≈ are worked out from the molar mass of the structure shown. Active and inactive are the calls of the source. No cut-off for these calls is given here.

How the values were obtained:
[1] = Plasma protein binding in dog; format: ADME, cell-free, Canis lupus familiaris; settings: read-out: PPB (converted)
[2] = Metabolic stability in dog hepatocyte assessed as intrinsic clearance measured per 10^6 cells; format: ADME, cell-based, Canis lupus familiaris; settings: hepatocytes, read-out: CLH
[3] = Cmax in Wistar rat total plasma at 1 mg/kg, po by HPLC-MS/MS analysis; format: ADME, organism-based; set-up: dose 1 mg/kg, route po
Rattus norvegicus [4] = assay: Pro-cognitive activity in po dosed subchronic PCP-induced cognitive impairment associated schizophrenia Wistar rat model assessed as reversal of PCP-induced cognitive deficit administered 30 mins prior to T1 phase by NOR test; format: functional; settings: 0.5 h, read-out: MED
[5] = Metabolic stability in Wistar rat hepatocyte assessed as intrinsic clearance measured per 10^6 cells; format: ADME, cell-based; settings: hepatocytes, read-out: CLH
Cytochrome P450 2C8 = molecular target: T1, Cytochrome P450 2C8 (Homo sapiens, UniProt P10632); assay: Inhibition of CYP2C8 (unknown origin); format: ADME
T1 sequence (P10632 whole entry): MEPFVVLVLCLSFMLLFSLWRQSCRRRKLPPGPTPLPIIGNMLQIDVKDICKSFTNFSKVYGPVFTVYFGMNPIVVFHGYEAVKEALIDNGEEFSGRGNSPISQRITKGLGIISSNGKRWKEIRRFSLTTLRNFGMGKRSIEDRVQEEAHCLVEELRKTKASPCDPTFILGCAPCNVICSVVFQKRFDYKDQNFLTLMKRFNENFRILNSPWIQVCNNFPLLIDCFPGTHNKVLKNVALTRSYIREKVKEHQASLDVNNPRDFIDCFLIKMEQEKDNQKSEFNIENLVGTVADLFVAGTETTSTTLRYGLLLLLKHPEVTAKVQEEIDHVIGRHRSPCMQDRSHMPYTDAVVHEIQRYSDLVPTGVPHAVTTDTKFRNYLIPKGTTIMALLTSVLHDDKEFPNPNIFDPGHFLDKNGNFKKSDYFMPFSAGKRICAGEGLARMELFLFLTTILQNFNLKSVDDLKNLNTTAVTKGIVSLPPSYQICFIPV

[6] = Bioavailability in female dog at 10 mg/kg, po or 3 mg/kg, iv by HPLC-MS/MS analysis; format: ADME, organism-based, Canis lupus familiaris; settings: in vivo
[7] = molecular target: Voltage-gated inwardly rectifying potassium channel KCNH2 (Homo sapiens, UniProt Q12809); assay: Inhibition of hERG expressed in CHO cells stably at -80 mV holding potential by automated patch clamp method; format: toxicity, cell-based
[8] = Ratio of drug level in brain to plasma in Wistar rat at 3 mg/kg, po measured at 1.5 hr post dose; format: ADME, organism-based; settings: brain and plasma, read-out: BPR
[9] = Bioavailability in male dog at 10 mg/kg, po or 3 mg/kg, iv by HPLC-MS/MS analysis; format: ADME, organism-based, Canis lupus familiaris; settings: in vivo
[10] = Cardiovascular toxicity in po dosed guinea pig assessed as NOAEL; format: organism-based, Cavia porcellus; settings: in vivo
[11] = Tmax in Wistar rat total plasma at 1 mg/kg, po by HPLC-MS/MS analysis; format: ADME, organism-based
[12] = […] in po dosed Wistar rat assessed as NED by Irwin test; format: organism-based; settings: in vivo, read-out: ED
[13] = […] in po dosed PTZ-induced seizure mouse model assessed as NOAEL by seizure test; format: organism-based; settings: in vivo
[14] = Passive permeability in human Caco-2 cells assessed as permeability damage ratio at 10 uM by HPLC-UV analysis; format: ADME, cell-based; settings: caco-2, 10 µM
[15] = Free plasma concentration in subchronic PCP-induced cognitive impairment associated schizophrenia Wistar rat model at 10 mg/kg, po measured at 1.5 hr post dose by HPLC-MS/MS analysis; format: ADME, organism-based; settings: in vivo
Cytochrome P450 2C9 = Cytochrome P450 2C9 (Homo sapiens, UniProt P11712); assay: Inhibition of CYP2C9 (unknown origin); format: ADME
Rattus norvegicus [16] = assay: Pro-cognitive activity in po dosed neonatal PCP-impaired social recognition Wistar rat model assessed as time spent social recognition administered 30 min before acquisition by social recognition test; format: functional; settings: 0.5 h, read-out: MED
[17] = Thermodynamic solubility of the compound at pH 7.4; format: physicochemical; settings: buffer, read-out: Therm_solubility
Cytochrome P450 2D6 = Cytochrome P450 2D6 (Homo sapiens, UniProt P10635); assay: Inhibition of CYP2D6 (unknown origin); format: ADME
Cytochrome P450 3A4 = Cytochrome P450 3A4 (Homo sapiens, UniProt P08684); assay: Inhibition of CYP3A4 (unknown origin); format: ADME
[18] = Clearance in Wistar rat plasma at 1 mg/kg, iv by HPLC-MS/MS analysis; format: ADME, organism-based
Rattus norvegicus [19] = assay: Pro-cognitive activity in neonatal PCP-impaired social recognition Wistar rat model assessed as time spent in recognition of new juveniles at 10 mg/kg, po administered 30 min before acquisition by social recognition test; format: functional, organism-based
[20] = Genotoxicity in Salmonella typhimurium up to 5000 ug/ml by Ames test; format: toxicity; settings: salmonella enterica subsp. enterica serovar typhimurium; dose < 5000 µg/ml
[21] = Metabolic stability in Wistar rat liver microsomes assessed as intrinsic clearance at 2.5 uM; format: ADME, Microsome; settings: read-out: CLH
[22] = Plasma protein binding in rat; format: ADME, cell-free; settings: read-out: PPB (converted)
[23] = molecular target: GABA-A receptor; alpha-1/beta-3/gamma-2 (Homo sapiens) (UniProt P14867+P18507+P28472); assay: Negative allosteric modulation activity at human recombinant alpha1beta3gamma2 GABAA receptor stably expressed in HEK293 cells assessed as modulation at alpha1 subunit at 10 uM by Patch clamp method; format: cell-based; settings: filed as negative allosteric modulator
[24] = Metabolic stability in guinea pig hepatocyte assessed as intrinsic clearance measured per 10^6 cells; format: ADME, cell-based, Cavia porcellus; settings: hepatocytes, read-out: CLH
[25] = Metabolic stability in human hepatocyte assessed as intrinsic clearance measured per 10^6 cells; format: ADME, cell-based; settings: hepatocytes, read-out: CLH
[26] = […] in po dosed Wister rat assessed as motor impairment by assessing NOAEL by spontaneous motor activity test; format: organism-based; settings: Wistar, in vivo
[27] = Ratio of drug level in brain to plasma in Wistar rat at 1 mg/kg, po or 1 mg/kg, iv by HPLC-MS/MS analysis; format: ADME, organism-based; settings: brain and plasma, read-out: BPR
[28] = Thermodynamic solubility of the compound at pH 6.5; format: physicochemical; settings: buffer, read-out: Therm_solubility
[29] = Volume of distribution in Wistar rat plasma at 1 mg/kg, iv by HPLC-MS/MS analysis; format: ADME, organism-based
[30] = Plasma level ratio in Wistar rat assessed as ratio between plasma concentration in PCP-induced toxicity Wistar rat model to plasma concentration in pro-cognitive activity for subchronic PCP-induced cognitive impairment associated schizophrenia Wistar rat model
[31] = Toxicity in po dosed Wistar rat assessed NOAEL by 4 days toxicology study; format: organism-based; settings: in vivo, time 4 day
[32] = AUC (0 to infinity) in Wistar rat total plasma at 1 mg/kg, po by HPLC-MS/MS analysis; format: ADME, organism-based; set-up: time infinity, dose 1 mg/kg, route po
[33] = Apparent permeability in human Caco-2 cells at 1 uM by HPLC-UV analysis; format: ADME, cell-based
[34] = Half life in Wistar rat total plasma at 1 mg/kg, po by HPLC-MS/MS analysis; format: ADME, organism-based

Cytochrome P450 2D6, sequence (P10635 whole entry): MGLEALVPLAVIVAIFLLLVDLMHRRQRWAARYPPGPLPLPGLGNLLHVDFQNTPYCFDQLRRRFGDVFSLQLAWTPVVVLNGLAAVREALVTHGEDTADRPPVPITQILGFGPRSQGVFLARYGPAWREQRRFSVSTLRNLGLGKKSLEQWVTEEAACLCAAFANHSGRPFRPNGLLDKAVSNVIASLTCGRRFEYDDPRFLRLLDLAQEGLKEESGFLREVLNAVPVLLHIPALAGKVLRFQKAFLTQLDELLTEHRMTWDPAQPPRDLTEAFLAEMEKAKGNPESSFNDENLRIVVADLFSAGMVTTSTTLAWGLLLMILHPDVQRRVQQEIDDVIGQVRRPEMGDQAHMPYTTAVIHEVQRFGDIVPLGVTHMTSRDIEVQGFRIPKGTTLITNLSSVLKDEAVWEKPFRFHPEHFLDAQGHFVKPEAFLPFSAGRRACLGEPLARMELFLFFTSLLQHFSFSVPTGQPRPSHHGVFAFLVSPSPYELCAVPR
Cytochrome P450 3A4, sequence (P08684 whole entry): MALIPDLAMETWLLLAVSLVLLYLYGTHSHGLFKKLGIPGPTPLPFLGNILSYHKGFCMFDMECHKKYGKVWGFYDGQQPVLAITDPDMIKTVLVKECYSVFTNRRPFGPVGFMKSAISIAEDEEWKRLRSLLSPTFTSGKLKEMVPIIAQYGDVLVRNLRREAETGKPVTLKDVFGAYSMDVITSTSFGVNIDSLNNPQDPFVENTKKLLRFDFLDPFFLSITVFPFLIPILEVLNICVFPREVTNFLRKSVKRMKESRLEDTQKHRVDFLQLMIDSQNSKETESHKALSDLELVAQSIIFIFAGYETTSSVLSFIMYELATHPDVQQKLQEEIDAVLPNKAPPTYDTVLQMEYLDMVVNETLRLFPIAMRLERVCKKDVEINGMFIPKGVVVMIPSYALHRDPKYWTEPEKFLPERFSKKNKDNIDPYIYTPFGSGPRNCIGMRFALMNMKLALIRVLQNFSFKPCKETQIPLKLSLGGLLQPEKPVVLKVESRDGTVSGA
Cytochrome P450 2C9, sequence (P11712 whole entry): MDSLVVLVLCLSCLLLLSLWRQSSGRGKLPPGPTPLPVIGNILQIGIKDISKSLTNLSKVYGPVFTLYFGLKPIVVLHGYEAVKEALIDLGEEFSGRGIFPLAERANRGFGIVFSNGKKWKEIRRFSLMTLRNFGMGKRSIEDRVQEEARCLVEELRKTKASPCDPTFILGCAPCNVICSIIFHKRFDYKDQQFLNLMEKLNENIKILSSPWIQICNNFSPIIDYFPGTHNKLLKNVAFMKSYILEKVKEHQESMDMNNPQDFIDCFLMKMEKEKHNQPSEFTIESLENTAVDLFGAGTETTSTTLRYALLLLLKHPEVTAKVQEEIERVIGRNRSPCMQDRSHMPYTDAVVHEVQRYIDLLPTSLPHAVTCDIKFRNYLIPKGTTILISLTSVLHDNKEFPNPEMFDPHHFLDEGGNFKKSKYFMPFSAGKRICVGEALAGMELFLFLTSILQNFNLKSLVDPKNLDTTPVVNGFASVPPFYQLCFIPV
Voltage-gated inwardly rectifying potassium channel KCNH2, sequence (Q12809 whole entry): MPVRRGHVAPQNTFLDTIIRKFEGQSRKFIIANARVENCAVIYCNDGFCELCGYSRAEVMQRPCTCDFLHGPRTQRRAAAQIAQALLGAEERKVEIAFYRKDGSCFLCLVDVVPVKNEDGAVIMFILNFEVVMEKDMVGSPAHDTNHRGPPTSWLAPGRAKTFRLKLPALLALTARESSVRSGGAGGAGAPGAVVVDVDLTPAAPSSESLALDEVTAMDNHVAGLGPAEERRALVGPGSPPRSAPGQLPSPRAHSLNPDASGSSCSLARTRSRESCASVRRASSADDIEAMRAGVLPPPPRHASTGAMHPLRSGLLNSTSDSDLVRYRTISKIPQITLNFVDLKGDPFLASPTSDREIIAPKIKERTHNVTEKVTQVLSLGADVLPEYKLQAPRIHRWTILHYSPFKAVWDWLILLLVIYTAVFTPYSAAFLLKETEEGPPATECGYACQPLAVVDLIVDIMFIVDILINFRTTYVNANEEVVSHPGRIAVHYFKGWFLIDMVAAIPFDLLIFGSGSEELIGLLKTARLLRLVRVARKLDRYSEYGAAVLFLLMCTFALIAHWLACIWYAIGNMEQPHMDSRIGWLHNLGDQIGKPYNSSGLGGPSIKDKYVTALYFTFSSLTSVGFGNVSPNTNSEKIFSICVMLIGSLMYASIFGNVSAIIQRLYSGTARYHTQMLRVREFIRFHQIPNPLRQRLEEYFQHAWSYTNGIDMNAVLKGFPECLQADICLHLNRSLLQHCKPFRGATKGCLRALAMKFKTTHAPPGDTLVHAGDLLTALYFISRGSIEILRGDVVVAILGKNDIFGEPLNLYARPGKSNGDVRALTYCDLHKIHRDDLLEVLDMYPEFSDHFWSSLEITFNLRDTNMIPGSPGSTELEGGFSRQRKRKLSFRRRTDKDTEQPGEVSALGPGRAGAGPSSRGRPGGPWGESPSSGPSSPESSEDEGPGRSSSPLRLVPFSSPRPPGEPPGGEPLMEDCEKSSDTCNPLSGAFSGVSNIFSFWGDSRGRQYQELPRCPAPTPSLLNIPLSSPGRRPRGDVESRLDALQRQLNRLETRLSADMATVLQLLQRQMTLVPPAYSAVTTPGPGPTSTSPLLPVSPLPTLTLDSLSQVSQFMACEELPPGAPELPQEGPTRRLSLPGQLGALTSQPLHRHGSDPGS

fraction unbound [1]: 0.05
hepatocyte CLint [2]: 2 µL/min/1e6 cells
Cmax [3]: 115 ng/mL
hepatocyte CLint [5]: 19 µL/min/1e6 cells
IC50 (Cytochrome P450 2C8): > 50 µM
bioavailability [6]: 6.7%
Kp at 1.5 h [8]: 6.3
bioavailability [9]: 12.6%
Tmax [11]: 30 min
Cp(f) [15]: 6.9 nM
IC50 (Cytochrome P450 2C9): > 50 µM
solubility thermodynamic [17]: 0.081 µM (≈ 0.0372 µg/mL)
IC50 (Cytochrome P450 2D6): > 50 µM
IC50 (Cytochrome P450 3A4): > 50 µM
clearance [18]: 41.3 mL/min/kg
microsomal CLint at 2.5 µM [21]: 29 µL/min/mg
fraction unbound [22]: 0.04
Activity [23]: -2%
hepatocyte CLint [24]: 4 µL/min/1e6 cells
hepatocyte CLint [25]: 3 µL/min/1e6 cells
Kp [27]: 0.54
solubility thermodynamic [28]: 9.8 µM (≈ 4.5 µg/mL)
Vd [29]: 1.9 L/kg
AUC(0-inf) [32]: 146 ng·h/mL
Papp at 1 µM [33]: 43 ×10⁻⁶ cm/s
half-life [34]: 70.2 min
SMILES: Cc1onc(-c2ccc(F)cc2)c1COc1ccc2c(n1)CCN(C(=O)CS(C)(=O)=O)C2
minimal effective dose (Rattus norvegicus [4]): 3 mg/kg
IC50 [7]: 6.2 µM
NOAEL [10]: ≥ 100 mg/kg
NOAEL [12]: ≥ 300 mg/kg
NOAEL [13]: ≥ 30 mg/kg
Ratio [14]: 29
minimal effective dose (Rattus norvegicus [16]): 10 mg/kg
Activity (Rattus norvegicus [19]): Active
Activity [20]: Non-Toxic
NOAEL [26]: ≥ 100 mg/kg
Ratio [30]: 11
NOAEL at 96 h [31]: ≥ 500 mg/kg
